Assay [1] has as its target T1, 3-oxo-5-alpha-steroid 4-dehydrogenase 2 (Homo sapiens, UniProt P31213).
T1 sequence (P31213 whole entry): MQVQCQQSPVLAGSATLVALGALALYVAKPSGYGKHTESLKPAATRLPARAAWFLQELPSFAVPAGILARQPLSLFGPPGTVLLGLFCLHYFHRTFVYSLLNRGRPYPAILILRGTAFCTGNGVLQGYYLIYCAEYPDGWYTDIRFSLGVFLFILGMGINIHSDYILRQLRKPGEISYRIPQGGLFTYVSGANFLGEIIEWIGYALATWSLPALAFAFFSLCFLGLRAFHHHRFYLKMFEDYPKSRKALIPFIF
Briefly: Inhibition of type-2 human steroid 5-alpha-reductase. The conditions noted are these: read-out: Ki app.

Assay [2] concerns the target T2, 3-oxo-5-alpha-steroid 4-dehydrogenase 1 (Homo sapiens, UniProt P18405).
T2 sequence (P18405 whole entry): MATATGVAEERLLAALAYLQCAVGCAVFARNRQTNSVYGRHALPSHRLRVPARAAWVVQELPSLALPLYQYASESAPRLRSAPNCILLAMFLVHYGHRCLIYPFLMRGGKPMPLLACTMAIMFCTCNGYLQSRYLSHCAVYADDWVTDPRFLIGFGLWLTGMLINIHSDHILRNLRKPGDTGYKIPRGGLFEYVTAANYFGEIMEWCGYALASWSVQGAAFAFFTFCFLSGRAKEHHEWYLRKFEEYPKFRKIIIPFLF
Briefly: Inhibition of type-1 human steroid 5-alpha-reductase. The settings on record: read-out: Ki app.

Assay [3] concerns the target T3, 3-oxo-5-alpha-steroid 4-dehydrogenase 2 (Homo sapiens) (UniProt P31213).
T3 sequence (whole entry): T1 sequence (P31213 whole entry)
The conditions noted are these: 10 uM.
Description: Inhibitory activity against type-2 human steroid 5-alpha-reductase at a concentration of 10 uM

The target of assay [4] is T1, 3-oxo-5-alpha-steroid 4-dehydrogenase 2. Briefly: (§1) Inhibitory activity against type-2 human steroid 5-alpha-reductase at a concentration of 1 uM; No inhibition.
Assay [5] shares this target. Described as §1. The source holds these as a separate data set.
The target of assay [6] is T3, 3-oxo-5-alpha-steroid 4-dehydrogenase 2 (Homo sapiens). The conditions noted are these: 20 uM.
Description: Inhibitory activity against type-2 human steroid 5-alpha-reductase at a concentration of 20 uM
Assay [7] shares this target. Briefly: Inhibitory activity against type-2 human steroid 5-alpha-reductase at a concentration of 2.5 uM.
In assay [8] the target is T4, 3-oxo-5-alpha-steroid 4-dehydrogenase 1 (Homo sapiens) (UniProt P18405).
T4 sequence (whole entry): T2 sequence (P18405 whole entry)
Briefly: Inhibitory activity against type-1 human steroid 5-alpha-reductase at a concentration of 2.5 uM.

Assay [9] deals with T1, 3-oxo-5-alpha-steroid 4-dehydrogenase 2. Briefly: Inhibitory activity against type-2 human steroid 5-alpha-reductase at a concentration of 1 uM: No inhibition.
For assay [10], the target named is T2, 3-oxo-5-alpha-steroid 4-dehydrogenase 1. Briefly: Inhibitory activity against type-1 human steroid 5-alpha-reductase.
Assay [11] concerns the target T1, 3-oxo-5-alpha-steroid 4-dehydrogenase 2. Briefly: Inhibitory activity against type-2 human steroid 5-alpha-reductase.

Some results are limits rather than exact numbers.

Broadly, the inhibition is the change of the read-out against control, counted positive when it falls. Higher therefore signals a response far below the control. Broadly, the IC50 is the concentration at which inhibition is half-maximal.

As for `O=C(O)c1ccc2c(c1)CCc1ccccc1-2`, the Ki is 10000 nM in assay [1] and 315 nM in assay [2]. Moreover, in [3], the inhibition was 20%.

With `CN1C(=O)CC[C@]2(C)c3ccc(Cl)cc3CC[C@@H]12`, the Ki app entry in assay [4] and in assay [5] was “Not Active” in each case.

`O=C(O)c1ccc2c(c1)CCc1cc(Br)ccc1-2`: the Ki in assay [1] came out at 10000 nM; in assay [2], 26 nM.

In the case of `CC1=C2NCc3cc(Cl)ccc3[C@@]2(C)CCC1=O`, the Ki worked out at 20000 nM in assay [1] and 920 nM in assay [2]. In [6], this compound registered an inhibition of 49%.

For `C[C@]12CCC(C(=O)O)=CC1=CCc1cc(Cl)ccc12`, the Ki is 260 nM in assay [1] and 1200 nM in assay [2].

As to `O=C(O)c1ccc2c(c1)CCc1cc(Cl)ccc1-2`, the inhibition in assay [7] is 50%. Further, the Ki in assay [1] is 2500 nM; in assay [2] it was 320 nM.

`O=C(O)c1ccc2c(c1)Cc1ccccc1-2`: the inhibition in assay [8] is 30%. In addition, the Ki in assay [1] was 10000 nM; in [2], above 2500 nM.

With `CC(C)(C)NC(=O)[C@H]1CCC2C3CC=C4C=C([PH](=O)O)CC[C@]4(C)C3CC[C@@]21C` (some centres undefined), the Ki in assay [1] turned out to be 1.3 nM; in [2], 3200 nM.

Turning to `CC(C)(C)NC(=O)[C@H]1CC[C@H]2[C@@H]3CCc4cc(C(=O)O)ccc4[C@H]3CC[C@]12C`, the Ki is 0.4 nM in [1] and 1600 nM in assay [2].

In the case of `C[C@]12CCC([PH](=O)O)=CC1=CCc1cc(Cl)ccc12`, the Ki in assay [1] came out at 1600 nM; in assay [2] it was 1900 nM.

For `CC(C)CC(=O)[C@H]1CCC2C3CNC4=CC(=O)CC[C@]4(C)C3CC[C@@]21C` (some centres undefined), the Ki in assay [1] is 0.08 nM.

As to `COc1cccc2c1CC[C@H]1C=C([N+](=O)[O-])CC[C@]21C`, in assay [8], the inhibition stood at 10%. Besides, in [9], the Ki app entry is “Not Active”. The Ki in [2] is above 2500 nM.

In the case of `CC(C)N(C(=O)[C@H]1CCC2C3CC[C@H]4C=C([N+](=O)[O-])CC[C@]4(C)C3CC[C@@]21C)C(C)C` (some centres undefined), the Ki in [1] stood at 30 nM; in assay [2] it was 4200 nM.

In the case of `CC(C)(C)NC(=O)[C@H]1CC[C@H]2[C@@H]3CC[C@H]4NC(=O)C=C[C@]4(C)[C@H]3CC[C@]12C` [FINASTERIDE], the IC50 stood at 500 nM in [10] and 4.2 nM in [11].

As for `CCN(CC)C(=O)[C@H]1CC[C@H]2[C@@H]3CC[C@H]4N(C)C(=O)CC[C@]4(C)[C@H]3CC[C@]12C`, the Ki in assay [1] came out at 2 nM; in [2], 3 nM.

For the origin of these results see ChEMBL document CHEMBL1128981, “A comparison of steroidal and non-steroidal inhibitors of human steroid 5-reductase: New tricyclic aryl acid inhibitors of the type-1 isozyme” (Bioorg Med Chem Lett, 1996).
